# Test results as given in patent publication US6849660B1, “Antimicrobial biaryl compounds” (ISIS Pharmaceuticals, Inc., priority 2000, dated 2005).
# Like-named read-outs stand apart in the source and are kept apart here.
# Key:
# [1] = test system: E. coli S30 bacterial extract; test: Coupled bacterial transcription/translation assay (luciferase reporter); format: biochemical
# Experimental: Coupled Bacterial Transcription/Translation Assay. The DNA template, pBestLuc™ (Promega), is a plasmid containing a reporter gene for firefly luciferase fused to a strong tac promoter and ribosome binding site. Messenger RNA from 1 μg pBestLuc was transcribed and translated in E. coli S30 bacterial extract in the presence or absence of test compound. Compounds were tested in a black 96 well microtiter plate with an assay volume of 35 μL. Each test well contained: 5 μL test compound, 13 μL S30 premix (Promega), 4 μL 10× complete amino acid mix (1 mM each), 5 μL E. coli S30 extract and 8 μL of 0.125 μg/μL pBestLuc™. The transcription/translation reaction was incubated for 35 minutes at 37° C. followed by detection of functional luciferase with the addition of 30 μL LucLite™ (Packard). Light output was quantitated on a Packard TopCount.
# E. coli = test: Minimum inhibitory concentration (MIC), E. coli; format: cell-based; details: Escherichia coli, Table 6
# Experimental: (§1) Bacterial Strains. The Streptococcus pyogenes strains, Klebsiella pneumoniae, Escherichia coli, Staphylococcus aureus, Enterococcus faecalis used in the antibacterial activity studies ATCC 14289, 49399, 13883, 25922, 13709, 29212, respectively, are obtained from the American Type Culture Collection, Rockville, Md. The strain E. coli imp- is a mutant strain of wild type E. coli with increased outer membrane permeability and was grown in LB broth at 37 ° C. S. pyogenes strain is grown in Todd-Hewitt broth. S. aureus is grown in trypticase soy broth, E. faecalis in Todd-Hewitt broth, wild type E. coli and K. pneumoniae, in nutrient broth.
# (§2) Determination of Minimum Inhibitory Concentrations (MICs). The assays were carried out in […] volume in duplicate in 96-well clear flat-bottom plates. The bacterial suspension from an overnight culture growth in appropriate medium was added to a solution of test compound in 4% DMSO in water. Final bacterial inoculum was approximately 10^5-10^6 CFU/well. The percent growth of the bacteria in test wells relative to that observed for a well containing no compound was determined by measuring absorbance at 595 nm (A595) after 24 h. […] Both ampicillin and tetracycline is used as antibiotic-positive controls in each screening assay for S. pyogenes, E. coli imp-, E. coli, S. aureus, E. faecalis, K pneumoniae and P. vulgaris. […]
# S. pyogenes = test: Minimum inhibitory concentration (MIC), S. pyogenes; format: cell-based; details: Streptococcus pyogenes
# Experimental: as §1
# (§3) Determination of Minimum Inhibitory Concentrations (MICs). The assays were carried out in […] volume in duplicate in 96-well clear flat-bottom plates. The bacterial suspension from an overnight culture growth in appropriate medium was added to a solution of test compound in 4% DMSO in water. Final bacterial inoculum was approximately 10^5-10^6 CFU/well. The percent growth of the bacteria in test wells relative to that observed for a well containing no compound was determined by measuring absorbance at 595 nm (A595) after 24 h. […] Both ampicillin and tetracycline is used as antibiotic-positive controls in each screening assay for S. pyogenes, E. coli imp-, E. coli, S. aureus, E. faecalis, K pneumoniae and P. vulgaris. Ciprofloxacin is used as an antibiotic positive control in each screening assay for P. aeruginosa.
# [2] = test system: 58 nucleotide fragment of E. coli 23S ribosomal RNA (23S rRNA); test: Mass-spec binding assay (ESI-FTICR-MS); details: Table 5, amino acid spacer compounds; read-out: approx. Kd
# Experimental: Binding affinity of test compounds to a 58 nucleotide fragment of E. coli 23S ribosomal RNA (23S rRNA) was determined using electrospray ionization Fourier transform ion cyclotron resonance mass spectrometry (ESI-FTICR-MS). The structure of the 23S rRNA fragment and its preparation is described by Conn et al (Science, 1999, 284(5417):1171) and Hinck et al (J. Mol. Biol., 1997, 274(1): 101) both incorporated herein by reference. The mass spec assay determined the exact chemical composition of ligands that bound to the target rRNA and determined relative or absolute dissociation (KD) of ligands for the target. In the first step of the assay, a mixture of 23S rRNA target and test compound were moved from solution into the gas phase by electrospray ionization. The FT-ICR mass spectrometer served as a parallel set of “scales”, simultaneously measuring the exact molecular masses of the small molecules that bound to the RNA with great accuracy. The mass measurement error for an RNA-ligand complex weighing 10 kDa equals the mass of an electron. At this level of mass accuracy, each compound in the mixture was “labeled” by its molecular formula and exact molecular mass. […]
# K. pneumoniae = test: Minimum inhibitory concentration (MIC), K. pneumoniae; format: cell-based; details: Klebsiella pneumoniae, Table 6
# Experimental: as §1, §2
# S. aureus = test: Minimum inhibitory concentration (MIC), S. aureus; format: cell-based; details: Staphylococcus aureus, Table 6
# Experimental: as §1, §2
# E. hirae = test: Minimum inhibitory concentration (MIC), E. hirae; format: cell-based; details: Enterococcus hirae, Table 6
# Experimental: as §3
# [3] = S. pyogenes, Table 6, read-out: MIC
# [4] = Table 5, amino acid spacer compounds
compound,measurement,setting,value
O=c1[nH]c2ccc(S(=O)(=O)Nc3cccc(-c4ccc(CN5CCNCC5)s4)c3)cc2[nH]c1=O,IC50,"[1]; Table 4, heteroaryl compounds",80 µM
CCn1cc(C(=O)Nc2ccc(-c3ccc(C(=O)N4CCNCC4)s3)cc2)c(=O)c2ccc(C)nc21,MIC,E. coli,50 to 100 µM
same,MIC,S. pyogenes; [3],50 to 100 µM
O=C(Nc1cccc(-c2ccc(C(=O)N3CCNCC3)o2)c1)c1ccc2[nH]c(=O)c(=O)[nH]c2c1,IC50,"[1]; Table 4, heteroaryl compounds",25 µM
O=C(Nc1cccc(-c2ccc(C(=O)NCCC(=O)N3CCNCC3)s2)c1)c1ccc2[nH]c(=O)c(=O)[nH]c2c1 [Structure 3],IC50,[1]; [4],35 µM
same,Kd,[2],139 µM
CCn1cc(C(=O)Nc2cccc(-c3ccc(C(=O)N4CCNCC4)s3)c2)c(=O)c2ccc(C)nc21,MIC,K. pneumoniae,50 to 100 µM
same,MIC,S. aureus,50 to 100 µM
same,MIC,E. coli,50 to 100 µM
same,MIC,S. pyogenes; [3],25 to 50 µM
same,MIC,E. hirae,50 to 100 µM
O=C(Nc1cccc(-c2ccc(C(=O)N3CCC[C@H]3C(=O)N3CCNCC3)s2)c1)c1ccc2[nH]c(=O)c(=O)[nH]c2c1,IC50,"[1]; Table 4, heteroaryl compounds",25 µM
O=C(Nc1cccc(-c2ccc(C(=O)N3CCNCC3)s2)c1)c1ccc2[nH]c(=O)c(=O)[nH]c2c1 [drawing 51],IC50,"[1]; Table 4, heteroaryl compounds",25 µM
NCCC(NC(=O)c1ccc(-c2cccc(NC(=O)c3ccc4[nH]c(=O)c(=O)[nH]c4c3)c2)s1)C(=O)N1CCNCC1 (centres unmarked),MIC,S. pyogenes,50 to 100 µM
O=C(Nc1cccc(-c2ccc(S(=O)(=O)N3CCNCC3)s2)c1)c1ccc2[nH]c(=O)c(=O)[nH]c2c1,IC50,"[1]; Table 4, heteroaryl compounds",35 µM
O=C(Nc1ccc(-c2ccc(C(=O)N3CCNCC3)s2)cc1)c1ccc2[nH]c(=O)c(=O)[nH]c2c1,IC50,"[1]; Table 4, heteroaryl compounds",50 µM
O=C(Nc1cccc(-c2ccc(C(=O)N3CCNCC3)s2)c1)c1ccc2[nH]c(=O)c(=O)[nH]c2c1 [Structure 1],IC50,[1]; [4],25 µM
same,Kd,[2],79 µM
O=C(Nc1ccc(-c2ccc(C(=O)Nc3ccc(C(=O)N4CCNCC4)cc3)s2)cc1)c1ccc2[nH]c(=O)c(=O)[nH]c2c1,IC50,"[1]; Table 4, heteroaryl compounds",30 µM
O=C(CNC(=O)c1ccc2[nH]c(=O)c(=O)[nH]c2c1)Nc1cccc(-c2ccc(C(=O)N3CCNCC3)s2)c1,IC50,"[1]; Table 4, heteroaryl compounds",100 µM
O=C(Nc1cccc(-c2nc(C(=O)N3CCNCC3)cs2)c1)c1ccc2[nH]c(=O)c(=O)[nH]c2c1,IC50,"[1]; Table 4, heteroaryl compounds",75 µM
O=C(Nc1ccc(-c2ccc(CN3CCNCC3)s2)cc1)c1ccc2[nH]c(=O)c(=O)[nH]c2c1,IC50,"[1]; Table 4, heteroaryl compounds",55 µM
O=C(c1ccc(-c2cccc(NS(=O)(=O)c3ccc4[nH]c(=O)c(=O)[nH]c4c3)c2)s1)N1CCNCC1,IC50,"[1]; Table 4, heteroaryl compounds",80 µM
